Values joined by “and” are separate entries in the source; they are usually repeats but may differ in a detail not shown here. Identical values can stand only once.
What was measured:
σ-2 = biological target: T1, σ-2 (Rattus norvegicus, UniProt Q5U3Y7); assay: Sigma-2 competitive radioligand displacement binding (NIMH PDSP)
T1 sequence (Q5U3Y7 1-176): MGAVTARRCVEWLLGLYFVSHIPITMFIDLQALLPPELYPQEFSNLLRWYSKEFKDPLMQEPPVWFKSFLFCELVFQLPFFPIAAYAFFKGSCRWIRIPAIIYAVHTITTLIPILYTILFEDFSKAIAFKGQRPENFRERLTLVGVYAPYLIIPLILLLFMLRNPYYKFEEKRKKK
Method: Sigma-1 and 2 affinity experiments (Ki values) were carried out at the National Institute of Mental Health’s Psychoactive Drug Screening Program (NIMH PDSP, UNC Chapel Hill, NC). Assay details (i.e., competitive radioligand displacement conditions, etc.) are available at https://pdsp.unc.edu/pdspweb/content/PDSP%20Protocols%20II%202013-03-28.pdf (accessed on 23 August 2023). Table 2 below indicates the Ki values determined for all compounds.

[1] = Oxygen Radical Activity Capacity (ORAC) assay; conditions: for antioxidant activities (in words): ORAC; for Slopes: slope of net AUC vs concentration (2.5-50 µM), averaged, n = 3 runs, 60 min; for TEs (Trolox equivalents): slope of sample divided by slope of Trolox, ORAC after 60 min, mean ± SD, n = 3
Method: Compound antioxidant capacities were determined using the Oxygen Radical Activity Capacity (ORAC) Assay Kit (catalog #ab233473, Abcam, Cambridge, MA, USA) according to the manufacturer’s protocol. Briefly, the Trolox standard (0.2 mM, 50:50 v/v, water: acetone) and each test compound (0.2 mM, 50:50 v/v, water: acetone) were tested at final concentrations ranging from 2.5 µM to 50 µM in the assay. Fluorescein (150 μL) probe solution and 25 μL of Trolox or each test compound were mixed in each well of a black 96-well microplate and incubated at 37 °C for 30 min. […] Trolox equivalents (TE) for the test compounds were obtained by directly dividing the slopes of each sample by the slope of the Trolox from its standard curve (Table 4). […] Curiously, unlike the phenolic Trolox derivatives (i.e., 3, 4, 8, 12, and 20), compound 18′s antioxidant activity can be attributed to the -NH-OH moiety.

HDAC-6 = biological target: T2, HDAC-6 (Homo sapiens, UniProt Q9UBN7); assay: HDAC fluorescence activity assay (Reaction Biology, Howitz conditions); conditions: HDAC-6 IC50, fluorogenic acetylated lysine substrate, 10-dose IC50 mode, threefold serial dilutions
T2 sequence (Q9UBN7 1-1215): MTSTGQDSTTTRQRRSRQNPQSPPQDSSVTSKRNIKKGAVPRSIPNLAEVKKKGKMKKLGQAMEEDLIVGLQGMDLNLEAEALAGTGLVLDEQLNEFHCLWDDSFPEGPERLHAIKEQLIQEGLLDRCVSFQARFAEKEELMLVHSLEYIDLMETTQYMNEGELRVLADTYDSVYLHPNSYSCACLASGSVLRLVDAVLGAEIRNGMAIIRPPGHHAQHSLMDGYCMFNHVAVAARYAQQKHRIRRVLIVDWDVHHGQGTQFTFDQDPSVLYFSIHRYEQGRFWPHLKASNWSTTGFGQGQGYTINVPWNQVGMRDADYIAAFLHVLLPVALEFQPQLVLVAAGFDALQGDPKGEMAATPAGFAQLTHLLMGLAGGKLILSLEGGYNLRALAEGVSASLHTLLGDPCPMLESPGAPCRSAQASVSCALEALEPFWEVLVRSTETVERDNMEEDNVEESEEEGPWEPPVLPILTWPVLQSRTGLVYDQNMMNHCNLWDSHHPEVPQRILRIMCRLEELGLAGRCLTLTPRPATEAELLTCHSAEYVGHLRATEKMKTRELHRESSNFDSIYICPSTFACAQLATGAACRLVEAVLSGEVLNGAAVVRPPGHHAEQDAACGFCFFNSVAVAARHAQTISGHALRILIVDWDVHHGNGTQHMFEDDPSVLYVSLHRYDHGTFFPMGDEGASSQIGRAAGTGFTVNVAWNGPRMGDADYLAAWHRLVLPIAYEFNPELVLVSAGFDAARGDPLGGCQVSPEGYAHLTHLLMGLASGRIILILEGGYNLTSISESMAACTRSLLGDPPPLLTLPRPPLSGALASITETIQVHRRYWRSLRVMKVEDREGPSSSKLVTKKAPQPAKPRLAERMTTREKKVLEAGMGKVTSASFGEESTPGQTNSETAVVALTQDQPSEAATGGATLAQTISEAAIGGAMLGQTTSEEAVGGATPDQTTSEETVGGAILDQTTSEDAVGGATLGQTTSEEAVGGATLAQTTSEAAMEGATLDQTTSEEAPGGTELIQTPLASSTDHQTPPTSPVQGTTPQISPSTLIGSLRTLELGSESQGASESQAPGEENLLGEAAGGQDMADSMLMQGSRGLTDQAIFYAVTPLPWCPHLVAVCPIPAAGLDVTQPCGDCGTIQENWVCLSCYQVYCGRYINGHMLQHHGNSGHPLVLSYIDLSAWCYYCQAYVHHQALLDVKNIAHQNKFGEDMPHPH

Row | Ki (σ-2) [µM] | IC50 (HDAC-6) | Structure (SMILES) | antioxidant activities (in words) [1] | Slopes [1] | TEs (Trolox equivalents) [1]
1 | > 10 | – | COC(=O)c1ccc(CNC(=O)Cc2ccccc2)cc1 [Compound 1, Methyl 4-((2-phenylacetamido)methyl) benzoate] | – | – | –
2 | 7.47 | – | COC(=O)c1ccc(CNC(=O)C2(C)CCc3c(C)c(O)c(C)c(C)c3O2)cc1 (stereo not shown) [Compound 2, Methyl 4-((6-hydroxy-2,5,7,8-tetramethylchromane-2-carboxamido)methyl)benzoate] | – | – | –
3 | > 10 | – | Cc1c(C)c2c(c(C)c1O)CCC(C)(C(=O)Nc1nc3ccccc3o1)O2 (stereo not shown) [Compound 3, N-(Benzo[d]oxazol-2-yl)-6-hydroxy-2,5,7,8-tetramethylchromane-2-carboxamide] | potent | 205.61 ± 4.38 | 1.70 ± 0.04 TE
4 | > 10 | – | Cc1c(C)c2c(c(C)c1O)CCC(C)(C(=O)NCc1ccc(S(N)(=O)=O)cc1)O2 (stereo not shown) [Compound 4, 6-Hydroxy-2,5,7,8-tetramethyl-N-(4-sulfamoylbenzyl) chromane-2-carboxamide] | potent | 155.07 ± 2.39 | 1.28 ± 0.02 TE
5 | > 10 | – | NNC(=O)c1ccc(CNC(=O)Cc2ccccc2)cc1 [Compound 5, N-(4-(Hydrazinecarbonyl)benzyl)-2-phenylacetamide] | – | – | –
6 | 7.49 | – | Cc1c(C)c2c(c(C)c1O)CCC(C)(C(=O)Nc1nc3ccccc3[nH]1)O2 (stereo not shown) [Compound 6, N-(1H-benzo[d]imidazol-2-yl)-6-hydroxy-2,5,7,8-tetramethylchromane-2-carboxamide] | – | – | –
7 | 1.5 | – | Cc1c(C)c2c(c(C)c1O)CCC(C)(C(=O)Nc1cc3ccccc3cn1)O2 (stereo not shown) [Compound 7, 6-Hydroxy-N-(isoquinolin-3-yl)-2,5,7,8-tetramethylchromane-2-carboxamide] | – | – | –
8 | > 10 | 0.017 µM and 0.0173 µM | Cc1c(C)c2c(c(C)c1O)CCC(C)(C(=O)NCc1ccc(C(=O)NO)cc1)O2 (stereo not shown) [Compound 8, 6-Hydroxy-N-(4-(hydroxycarbamoyl)benzyl)-2,5,7,8-tetramethylchromane-2-carboxamide] | potent | 232.42 ± 8.98 | 1.92 TE and 1.92 ± 0.07 TE
9 | > 10 | – | Cc1c(C)c2c(c(C)c1O)CCC(C)(C(=O)NCc1ccc(C(=O)NN)cc1)O2 (stereo not shown) [Compound 9, N-(4-(Hydrazinecarbonyl)benzyl)-6-hydroxy-2,5,7,8-tetramethylchromane-2-carboxamide] | – | – | –
10 | 5.59 | – | Cc1c(C)c2c(c(C)c1O)CCC(C)(C(=O)Nc1cnccn1)O2 (stereo not shown) [Compound 10, 6-Hydroxy-2,5,7,8-tetramethyl-N-(pyrazin-2-yl) chromane-2-carboxamide] | – | – | –
11 | > 10 | – | Cc1nc(NC(=O)C2(C)CCc3c(C)c(O)c(C)c(C)c3O2)sc1C (stereo not shown) [Compound 11, N-(4,5-Dimethylthiazol-2-yl)-6-hydroxy-2,5,7,8-tetramethylchromane-2-carboxamide] | – | – | –
12 | > 10 | – | Cc1c(C)c2c(c(C)c1O)CCC(C)(C(=O)Nc1ncc[nH]1)O2 (stereo not shown) [Compound 12, 6-Hydroxy-N-(1H-imidazol-2-yl)-2,5,7,8-tetramethylchromane-2-carboxamide] | potent | 151.24 ± 0.30 | 1.25 ± 0.002 TE
13 | 6.86 | – | Cc1cc(NC(=O)C2(C)CCc3c(C)c(O)c(C)c(C)c3O2)no1 (stereo not shown) [Compound 13, 6-Hydroxy-2,5,7,8-tetramethyl-N-(5-methylisoxazol-3-yl)chromane-2-carboxamide] | – | – | –
14 | 2.49 | – | Cc1c(C)c2c(c(C)c1O)CCC(C)(C(=O)N1CCN(c3ncccn3)CC1)O2 (stereo not shown) [Compound 14, (6-Hydroxy-2,5,7,8-tetramethylchroman-2-yl)(4-(pyrimidin-2-yl)piperazin-1-yl)methanone] | – | – | –
15 | 6.98 | – | Cc1c(C)c2c(c(C)c1O)CCC(C)(C(=O)NCc1ccc3c(c1)OCO3)O2 (stereo not shown) [Compound 15, N-(Benzo[d][1,3]dioxol-5-ylmethyl)-6-hydroxy-2,5,7,8-tetramethylchromane-2-carboxamide] | – | – | –
16 | > 10 | – | NS(=O)(=O)c1ccc(CNC(=O)Cc2ccccc2)cc1 [Compound 16, 2-Phenyl-N-(4-sulfamoylbenzyl) acetamide] | – | – | –
17 | – | 0.077 µM and 0.0779 µM | O=C(Cc1ccccc1)NCc1ccc(C(=O)NO)cc1 [Compound 18, N-Hydroxy-4-((2-phenylacetamido)methyl)benzamide] | potent | 137.45 ± 1.88 | 1.13 ± 0.02 TE
18 | – | – | Cc1c(C)c2c(c(C)c1O)CCC(C)(C(=O)NNC(=O)c1ccc(Cl)cc1)O2 (stereo not shown) [Compound 20, N′-(4-Chlorobenzoyl)-6-hydroxy-2,5,7,8-tetramethylchromane-2-carbohydrazide] | potent | 177.86 ± 3.38 | 1.47 ± 0.03 TE
19 | – | – | Cc1c(C)c2c(c(C)c1O)CCC(C)(C(=O)O)O2 (stereo not shown) [Trolox, 6-hydroxy-2,5,7,8-tetramethylchroman-2-carboxylic acid] | – | – | 1.0 TE

From PMC10607876, “Phenylacetyl-/Trolox- Amides: Synthesis, Sigma-1, HDAC-6, and Antioxidant Activities” (International Journal of Molecular Sciences, 2023)
